Values of other authors as cited in patent US20220039380A1, “PEST CONTROL INCLUDING COMBINED MATING DISRUPTION AND TRAPPING” (Trécé Inc., priority 2019, published 2022).
Like-named read-outs stand apart in the source and are kept apart here.

Assays:
[1] = tested on: Codling Moth (CM) Cydia pomonella; settings: kairomone attractants without pheromone, field demonstrated, Male Lures
[2] = tested on: Oriental Fruit Moth (OFM) Grapholita molesta; settings: for % increase in Male capture above pheromone alone: pheromone synergists, field demonstrated
[3] = tested on: Peach Twig Borer (PTB) Anarsia lineatella; settings: pheromone synergists, field demonstrated
[4] = tested on: Corn Earworm (CEW) Helocoverpa zea; settings: for % increase in Male capture above pheromone alone: pheromone synergists, field demonstrated
[5] = tested on: Codling Moth (CM) Cydia pomonella; settings: pheromone synergists, suggested (lab flight tunnel demonstrated)
[6] = tested on: Cabbage Looper (CL) Tricoplusia ni; settings: pheromone synergists, field demonstrated
[7] = tested on: Codling Moth (CM) Cydia pomonella; settings: pheromone synergists, proven (field demonstrated)
[8] = tested on: Beet Armyworm (BAW) Spodoptera exigua; settings: pheromone synergists, field demonstrated
[9] = tested on: Beet Armyworm (BAW) Spodoptera exigua; settings: Field & Flight Tunnel
[10] = tested on: Omnivorous Leafroller (OLR) Platynota stultana; settings: pheromone synergists, field demonstrated
[11] = tested on: Tobacco Budworm (TBW) Heliothis virescens; settings: pheromone synergists, field demonstrated
[12] = tested on: Codling Moth (CM) Cydia pomonella; settings: for HPVs Reduce/Inhibit Pear Ester Attraction: Females Attraction: codling moth females
[13] = codling moth, added to Ethyl (2,4)(E,Z) decadienoate

Compound: C=C/C=C(\C)CCC=C(C)C
- Male lure attraction (in words) [1]: dimethyl nonatriene (less females)
- % increase in Male capture above pheromone alone [2]: dimethyl nonatriene (427%)
- % increase in Male capture above pheromone alone [3]: dimethyl nonatriene (134%)
- % increase in Male capture above pheromone alone [4]: dimethyl nonatriene (357%)

Compound: C=CC(C)(O)CCC=C(C)C (racemic) [(±) linalool]
- Pheromone synergism [5]: (±) linalool (162%)

Compound: CCC(C)C=NO (centres unmarked) [2-methyl butanal oxime]
- % increase in Male capture above pheromone alone [4]: 2-methyl butanal oxime (196%)
- % increase in Male capture above pheromone alone [6]: 2-methyl butanal oxime (196%)

Compound: OCCc1ccccc1 [2-phenylethanol]
- % increase in Male capture above pheromone alone [6]: 2-phenylethanol (131%)

Compound: CC(C)CCO [3-methyl butanol]
- % increase in Male capture above pheromone alone [7]: 3-methyl butanol (184%)

Compound: CCC/C=C/C=O [(E)-2-hexenal]
- % increase in Male capture above pheromone alone [4]: (E)-2-hexenal (176%)
- % increase in Male capture above pheromone alone [8]: (E)-2-hexenal (123%)
- % increase in Male capture above pheromone alone [9]: (E)-2-hexenal (139%)

Compound: CCC/C=C/CO [(E)-2-hexenol]
- Pheromone synergism [10]: (E)-2-hexenol (204%)
- % increase in Male capture above pheromone alone [3]: (E)-2-hexenol (131%)
- % increase in Male capture above pheromone alone [6]: (E)-2-hexenol (112%)

Compound: CCC/C=C/COC(C)=O [(E)-2-hexenyl acetate]
- % increase in Male capture above pheromone alone [2]: (E)-2-hexenyl acetate (210%)
- % increase in Male capture above pheromone alone [4]: (E)-2-hexenyl acetate (190%)
- % increase in Male capture above pheromone alone [11]: (E)-2-hexenyl acetate (183%)

Compound: C=C1CC/C=C(\C)CC[C@@H]2[C@@H]1CC2(C)C [(E)-beta-caryophyllene]
- % increase in Male capture above pheromone alone [2]: (E)-beta-caryophyllene (147%)
- % increase in Male capture above pheromone alone [4]: (E)-beta-caryophyllene (344%)

Compound: C=C/C(C)=C/CC=C(C)C [(E)-beta-ocimene]
- % increase in Male capture above pheromone alone [7]: (E)-beta-ocimene (170%)
- % increase in Male capture above pheromone alone [4]: (E)-beta-ocimene (141%)

Compound: C=CC(C)(O)CC/C=C(\C)CCC=C(C)C (centres unmarked) [(E)-nerolidol]
- % increase in Male capture above pheromone alone [4]: (E)-nerolidol (193%)

Compound: C=C/C(C)=C/C/C=C(\C)CCC=C(C)C [(E,E)-alpha-farnesene]
- HPVs Reduce/Inhibit Pear Ester Attraction [12, 13]: (E,E)-alpha-farnesene (−68%)
- % increase in Male capture above pheromone alone [3]: (E,E)-alpha-farnesene (144%)

Compound: CC1=CC[C@@H]2C[C@H]1C2(C)C [(R)-(+)-alpha-pinene]
- % increase in Male capture above pheromone alone [4]: (R)-(+)-alpha-pinene (348%)

Compound: CC1=CC[C@H]2C[C@@H]1C2(C)C [(S)-(−)-alpha-pinene]
- % increase in Male capture above pheromone alone [4]: (S)-(−)-alpha-pinene (215%)

Compound: CC/C=C\CCO [(Z)-3-hexenol]
- Pheromone synergism [10]: (Z)-3-hexenol (193%)
- % increase in Male capture above pheromone alone [3]: (Z)-3-hexenol (117%)
- % increase in Male capture above pheromone alone [4]: (Z)-3-hexenol (128%)
- % increase in Male capture above pheromone alone [6]: (Z)-3-hexenol (152%)
- % increase in Male capture above pheromone alone [9]: (Z)-3-hexenol (121%)

Compound: CC/C=C\CCOC(C)=O [(Z)-3-hexenyl acetate]
- Pheromone synergism [5]: (Z)-3-hexenyl acetate (151%)
- HPVs Enhance Pear Ester Attraction (in words) [12, 13]: (Z)-3-hexenyl acetate (additive)
- % increase in Male capture above pheromone alone [2]: (Z)-3-hexenyl acetate (258%)
- % increase in Male capture above pheromone alone [3]: (Z)-3-hexenyl acetate (143%)
- % increase in Male capture above pheromone alone [11]: (Z)-3-hexenyl acetate (217%)
- % increase in Male capture above pheromone alone [9]: (Z)-3-hexenyl acetate (125%)

Compound: C=C/C(C)=C/C/C=C(/C)CCC=C(C)C [(Z,E)-alpha-farnesene]
- HPVs Reduce/Inhibit Pear Ester Attraction: Females Attraction [12]: (Z,E)-alpha-farnesene (−87%)

Compound: CC(C)=CCC[C@]1(C)[C@H]2CC=C(C)[C@@H]1C2 [alpha-(E)-bergamotene]
- % increase in Male capture above pheromone alone [4]: alpha-(E)-bergamotene (285%)

Compound: CC1=CC[C@H](C(C)C)C=C1 [alpha-phellandrene]
- % increase in Male capture above pheromone alone [4]: alpha-phellandrene (152%)

Compound: O=Cc1ccccc1 [benzaldehyde]
- Pheromone Antagonists [2]: benzaldehyde (68%)

Compound: C=C1C=CC(C(C)C)CC1 (stereo not drawn) [beta-phellandrene]
- % increase in Male capture above pheromone alone [4]: beta-phellandrene (342%)

Compound: CCCCCC(=O)OCCCC [butyl hexanoate]
- HPVs Reduce/Inhibit Pear Ester Attraction [12, 13]: butyl hexanoate (−45%)

Compound: CC(C)=CCCC(C)=CCCC(C)=CCO [farnesol]
- HPVs Reduce/Inhibit Pear Ester Attraction [12, 13]: farnesol (−56%)

Compound: CC1=CCC(C(C)C)=CC1 [gamma-terpinene]
- % increase in Male capture above pheromone alone [7]: gamma-terpinene (131%)

Compound: CCCCCC(C)O (centres unmarked) [heptan-2-ol]
- % increase in Male capture above pheromone alone [4]: heptan-2-ol (283%)

Compound: CCCCCC=O [hexanal]
- % increase in Male capture above pheromone alone [4]: hexanal (237%)
- % increase in Male capture above pheromone alone [8]: hexanal (107%)

Compound: CCCCCCO [hexanol]
- % increase in Male capture above pheromone alone [6]: hexanol (132%)

Compound: CCCCCCOC(C)=O [hexyl acetate]
- % increase in Male capture above pheromone alone [2]: hexyl acetate (159%)
- % increase in Male capture above pheromone alone [4]: hexyl acetate (176%)

Compound: C/C1=C\CC/C(C)=C/CC(C)(C)/C=C/C1 [humulene]
- % increase in Male capture above pheromone alone [4]: humulene (220%)

Compound: C=C(C)[C@H]1CC=C(C)CC1 [limonene]
- % increase in Male capture above pheromone alone [3]: limonene (132%)
- % increase in Male capture above pheromone alone [4]: limonene (150%)

Compound: CC/C=C\CC1C(=O)CCC1CC(=O)OC (centres unmarked) [methyl jasmonate]
- % increase in Male capture above pheromone alone [4]: methyl jasmonate (255%)

Compound: CCCCCCCC(=O)OC [methyl octanoate]
- % increase in Male capture above pheromone alone [3]: methyl octanoate (172%)

Compound: COC(=O)c1ccccc1O [methyl salicylate]
- % increase in Male capture above pheromone alone [4]: methyl salicylate (172%)

Compound: C=CC(=C)CCC=C(C)C [myrcene]
- % increase in Male capture above pheromone alone [7]: myrcene (190%)

Compound: CCCCCCCCC=O [nonanal]
- HPVs Reduce/Inhibit Pear Ester Attraction: Females Attraction [12]: nonanal (−95%)
- % increase in Male capture above pheromone alone [4]: nonanal (219%)

Compound: Cc1ccc(C(C)C)cc1 [para-cymene]
- % increase in Male capture above pheromone alone [7]: para-cymene (187%)

Compound: O=CCc1ccccc1 [phenyl acetaldehyde]
- Blossom Volatiles, Gaura Volatiles, repeated below the heading Pheromone Antagonists [4]: phenyl acetaldehyde (216%)
- % increase in Male capture above pheromone alone [4]: phenyl acetaldehyde (216%)
- % increase in Male capture above pheromone alone [6]: phenyl acetaldehyde (188%)
- % increase in Male capture above pheromone alone [9]: phenylacetaldehyde (135%)

Compound: CC1=CCC(O)(C(C)C)CC1 (centres unmarked) [terpinen-4-ol]
- % increase in Male capture above pheromone alone [7]: terpinen-4-ol (206%)

Compound: butanol
- % increase in Male capture above pheromone alone [7]: butanol (202%)
